# Measurements taken from ChEMBL document CHEMBL1201862, “PubChem BioAssay data set” (2004).
#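 96-well plates; 48 h exposure; 5 concentrations. Endpoints by linear interpolation between flanking doses. Not reached: highest tested concentration assigned. The concentration for 50% growth inhibition is given as GI50.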 Activity calls are given as the source filed them. Rule as the data show it: active = GI50 up to about 1.1 µM and inactive = higher.
# Columns and labels:
# Experiment in all cases: inhibition of tumour cell growth, NCI panel, 48 h
# [1] = test system: HCC 2998
# [2] = test system: 786-0
# [3] = test system: SK-OV-3
# [4] = test system: NCI-H226
# [5] = test system: HOP-62
# [6] = test system: HCT-116
# [7] = test system: U-251
# [8] = test system: COLO 205
# [9] = test system: KM12
# [10] = test system: Malme-3M
# [11] = test system: SN12C
# [12] = test system: NCI-H522
# [13] = test system: LOX IMVI
# [14] = test system: HCT-15
# [15] = test system: RPMI-8226
# [16] = test system: UACC-257
# [17] = test system: UO-31
# [18] = test system: EKVX
# [19] = test system: CAKI-1
SMILES,GI50 [1],GI50 [2],GI50 [3],GI50 [4],GI50 [5],GI50 [6],GI50 [7],GI50 [8],GI50 [9],GI50 [10],GI50 [11],GI50 [12],GI50 [13],GI50 [14],GI50 [15],GI50 [16],GI50 [17],GI50 [18],GI50 [19]
COC(CC1(OC)OC(=O)C=C1N)OC (stereo unspecified),> 100 µM (inactive),> 100 µM (inactive),> 100 µM (inactive),> 100 µM (inactive),> 100 µM (inactive),> 100 µM (inactive),> 100 µM (inactive),> 100 µM (inactive),> 100 µM (inactive),> 100 µM (inactive),> 100 µM (inactive),> 100 µM (inactive),> 100 µM (inactive),> 100 µM,> 100 µM (inactive),> 100 µM (inactive),> 100 µM (inactive),> 100 µM (inactive),
CC1=CC(O)(c2ccc(-c3ccccc3Cl)cc2)OC1=O (stereo unspecified),> 100 µM (inactive),> 100 µM (inactive),> 100 µM (inactive),,> 100 µM (inactive),,> 100 µM (inactive),> 100 µM (inactive),> 100 µM (inactive),> 100 µM (inactive),> 100 µM (inactive),> 100 µM (inactive),> 100 µM (inactive),> 100 µM,> 100 µM (inactive),> 100 µM (inactive),> 100 µM (inactive),> 100 µM (inactive),> 100 µM (inactive)
CC(C)(C)OC(=O)c1cccnc1/C=N/O,,67.6 µM (inactive),> 100 µM (inactive),> 100 µM (inactive),> 100 µM (inactive),> 100 µM (inactive),> 100 µM (inactive),> 100 µM (inactive),> 100 µM (inactive),> 100 µM (inactive),> 100 µM (inactive),> 100 µM (inactive),> 100 µM (inactive),51.9 µM,,> 100 µM (inactive),> 100 µM (inactive),> 100 µM (inactive),> 100 µM (inactive)
CCC(=O)c1c(NOC2OC(COC(C)=O)C(OC(C)=O)C(OC(C)=O)C2OC(C)=O)nc(OC)n(C)c1=O (stereo unspecified),> 100 µM (inactive),> 100 µM (inactive),,50.1 µM (inactive),> 100 µM (inactive),> 100 µM (inactive),> 100 µM (inactive),> 100 µM (inactive),> 100 µM (inactive),,> 100 µM (inactive),> 100 µM (inactive),> 100 µM (inactive),> 100 µM,,,,> 100 µM (inactive),
CCN(CC)c1ccc(/N=N/c2ccc(-c3nc4cccnc4s3)cc2)cc1,> 100 µM (inactive),45.4 µM (inactive),> 100 µM (inactive),> 100 µM (inactive),> 100 µM (inactive),> 100 µM (inactive),> 100 µM (inactive),> 100 µM (inactive),> 100 µM (inactive),> 100 µM (inactive),> 100 µM (inactive),> 100 µM (inactive),,,> 100 µM (inactive),> 100 µM (inactive),> 100 µM (inactive),> 100 µM (inactive),> 100 µM (inactive)
CC(=O)Nc1ccc(-c2nnc(SCC(=O)Nc3ccccc3C)o2)cc1,,> 100 µM (inactive),> 100 µM (inactive),> 100 µM (inactive),> 100 µM (inactive),15.6 µM (inactive),66.7 µM (inactive),> 100 µM (inactive),44.7 µM (inactive),> 100 µM (inactive),> 100 µM (inactive),58.3 µM (inactive),63 µM (inactive),80.2 µM,46.3 µM (inactive),> 100 µM (inactive),52 µM (inactive),,
Cn1cc(NC(=O)c2cc(NC(=O)CCCCCC(=O)Nc3cc(C(=O)Nc4cc(C(=O)NCCC(=N)N)n(C)c4)n(C)c3)cn2C)cc1C(=O)NCCC(=N)N,> 100 µM (inactive),> 100 µM (inactive),> 100 µM (inactive),,,67.1 µM (inactive),> 100 µM (inactive),> 100 µM (inactive),73.8 µM (inactive),9.64 µM (inactive),> 100 µM (inactive),,46.1 µM (inactive),> 100 µM,,27.2 µM (inactive),> 100 µM (inactive),> 100 µM (inactive),> 100 µM (inactive)
O=c1cccccc1O.O=c1cccccc1O.O=c1cccccc1O.[SiH4],32.4 µM (inactive),33 µM (inactive),31.8 µM (inactive),,28.4 µM (inactive),13.6 µM (inactive),21.3 µM (inactive),11 µM (inactive),26.8 µM (inactive),54.6 µM (inactive),25.3 µM (inactive),2.33 µM (inactive),,,9.73 µM (inactive),21 µM (inactive),25.2 µM (inactive),< 0.01 µM (active),56.2 µM (inactive)
CN(C)CC/C(=N\Nc1ccc(Cl)cc1Cl)c1ccccc1,,13.7 µM (inactive),12.3 µM (inactive),,13.9 µM (inactive),13.8 µM (inactive),12.4 µM (inactive),15.1 µM (inactive),16 µM (inactive),23.3 µM (inactive),12.6 µM (inactive),> 10 µM (inactive),14.8 µM (inactive),12.4 µM,3.94 µM (inactive),15.9 µM (inactive),2.37 µM (inactive),20.6 µM (inactive),
Nc1ncnc2c1ncn2C1OC(CSCc2ccc(Cl)cc2)C(O)C1O (stereo unspecified),44.9 µM (inactive),34.1 µM (inactive),> 100 µM (inactive),,17 µM (inactive),19.8 µM (inactive),66.2 µM (inactive),40.4 µM (inactive),24.2 µM (inactive),56.9 µM (inactive),45.7 µM (inactive),,37.3 µM (inactive),12 µM,21.8 µM (inactive),31.3 µM (inactive),18.9 µM (inactive),81.7 µM (inactive),21.5 µM (inactive)
CC(C)(C)OC(=O)N(CCCCNC(=O)c1ccccc1)CCCNC(=O)c1ccccc1,> 100 µM (inactive),> 100 µM (inactive),> 100 µM (inactive),> 100 µM (inactive),> 100 µM (inactive),> 100 µM (inactive),> 100 µM (inactive),> 100 µM (inactive),> 100 µM (inactive),,> 100 µM (inactive),> 100 µM (inactive),,> 100 µM,> 100 µM (inactive),> 100 µM (inactive),90.6 µM (inactive),> 100 µM (inactive),> 100 µM (inactive)
C=CN1C(=O)[C@H](Oc2ccccc2)[C@@H]1c1ccccc1,47.4 µM (inactive),18.9 µM (inactive),32.1 µM (inactive),44.4 µM (inactive),32.7 µM (inactive),24.9 µM (inactive),36.4 µM (inactive),,33 µM (inactive),63.2 µM (inactive),32.7 µM (inactive),32.6 µM (inactive),,41.1 µM,20.3 µM (inactive),41.5 µM (inactive),36.3 µM (inactive),47.8 µM (inactive),
Cn1nc(-c2ccccc2)c(C(=O)/C=C/c2ccc(Cl)cc2)c(N2CCCC2)c1=O,,3.13 µM (inactive),4.99 µM (inactive),,2.23 µM (inactive),2.56 µM (inactive),4.27 µM (inactive),2.11 µM (inactive),,,5.94 µM (inactive),2.07 µM (inactive),3.8 µM (inactive),3.75 µM,2.7 µM (inactive),,8.51 µM (inactive),11.7 µM (inactive),0.55 µM (active)
CCOC(=O)NC(=O)c1cn(CCCOC(=O)NCCCCCCNC(=O)OCCCn2cc(C(=O)NC(=O)OCC)c(=O)[nH]c2=O)c(=O)[nH]c1=O,20 µM (inactive),20 µM (inactive),66.1 µM (inactive),,40.1 µM (inactive),35.1 µM (inactive),18.1 µM (inactive),19.8 µM (inactive),,,47.6 µM (inactive),,43.1 µM (inactive),28.2 µM,14.1 µM (inactive),19.2 µM (inactive),,> 100 µM (inactive),11.9 µM (inactive)
COc1ccc(C2=NNC(=O)c3ccccc3N2c2nc(-c3cccs3)nc3cc(OC)c(OC)cc23)cc1,2.96 µM (inactive),2.32 µM (inactive),17 µM (inactive),4.56 µM (inactive),3.13 µM (inactive),3.92 µM (inactive),3.3 µM (inactive),2.86 µM (inactive),4.09 µM (inactive),2.6 µM (inactive),3.17 µM (inactive),5.98 µM (inactive),,5.92 µM,3.71 µM (inactive),4.19 µM (inactive),4.34 µM (inactive),20.9 µM (inactive),14.6 µM (inactive)
O=C(/C=C/c1ccc(Cl)c(Cl)c1)CCN1CCN(CCC(=O)/C=C/c2ccc(Cl)c(Cl)c2)CC1,14.1 µM (inactive),6.9 µM (inactive),45.6 µM (inactive),19.7 µM (inactive),21.9 µM (inactive),7.55 µM (inactive),13.9 µM (inactive),21.8 µM (inactive),12.5 µM (inactive),,26.3 µM (inactive),8.13 µM (inactive),13 µM (inactive),13.8 µM,3.21 µM (inactive),33 µM (inactive),16.8 µM (inactive),30.4 µM (inactive),15.6 µM (inactive)
Cc1ccc(NC(=O)CCc2n[nH]c(=S)o2)cc1,> 100 µM (inactive),> 100 µM (inactive),,> 100 µM (inactive),> 100 µM (inactive),> 100 µM (inactive),> 100 µM (inactive),> 100 µM (inactive),> 100 µM (inactive),> 100 µM (inactive),> 100 µM (inactive),> 100 µM (inactive),> 100 µM (inactive),> 100 µM,,> 100 µM (inactive),> 100 µM (inactive),> 100 µM (inactive),> 100 µM (inactive)
